Measurements from the NIST ThermoML archive (doi:10.1016/j.jct.2016.11.019).
Numbers after ± are expanded uncertainties.

Assay: Molar enthalpy of transition or fusion
Settings: Crystal; DSC

Nc1cc(Cl)ccc1C(=O)O [2-amino-4-chlorobenzoic acid]
Molar enthalpy of transition or fusion: 6.87 ± 0.237 kcal/mol
